Experimental data from patent US20250188057A1, “NON-AROMATIC CYCLIC-PYRIMIDINE ANALOGS AS GLUCOSYLCERAMIDE SYNTHASE INHIBITORS” (Merck Sharp & Dohme LLC, priority 2022, published 2025).

Target: glucosylceramide synthase (GCS) (Homo sapiens (Human), UniProt Q16739)
Assay: UDP-Glo glucosylceramide synthase biochemical assay
Details: endogenous GCS in Golgi preparations isolated from human A375 malignant melanoma skin cells; UDP detection by luminescence
Description: A UDP-Glo™ glucosylceramide synthase biochemical assay was utilized to evaluate the effect of test compounds on the activity of endogenous levels of GCS enzyme contained within Golgi preparations isolated from human A375 malignant melanoma skin cells. The UDP-Glo™ glucosylceramide synthase assay uses UDP-Glucose as a nucleotide-glycosyl donor and ceramide as substrate acceptor molecules. In the reaction, glucosylceramide synthase (GCS) transfers glucose from UDP-Glucose to ceramide. Glucosylceramide and UDP are released as products.
Using Promega's UDP-Glo™ Glycosyltransferase assay kit (Promega Corporation, Madison, WI, USA (Promega)), GCS activity was indirectly measured by detecting the amount of UDP produced. An aliquot of GCS enzyme (1.5 μg crude golgi preparation, total protein) and titrated test compound were aliquoted to each well and incubated for 30 minutes at room temperature. […] An equivalent volume of substrate mixture was then added to each well. Following a 20 h incubation at room temperature to allow for GCS turnover of substrate, an equal volume of UDP detection reagent (Promega) was added to each well and incubated for an additional 75 minutes at room temperature to simultaneously convert the accumulated UDP product into ATP and generate light in a luciferase reaction. The generated light was detected using a luminometer. […] luminescence values (RLUs) were normalized to mean “min” and “max” effects, as determined on each plate. “Min” was defined as the mean of the values of the wells treated with vehicle (DMSO) and which represent 0% inhibition; “max” was defined as the mean of the values of the wells treated with a reference inhibitor and which represent the 100% effect. Values for % Emax and EC50 were determined by best-fitting the normalized data to a curve in Activity Base along a four-parameter logistic nonlinear regression (4PL) model (based on the Levenberg-Marquardt algorithm and defined by the equation below): […]
where: n is 4PMin (bottom of the curve); m is 4PMax (top of the curve); i is IP (inflection point of curve); and p is slope. See Levenberg, K., “A Method for the Solution of Certain Problems in Least Squares”, Quart. Appl. Math. 2, (1944), pp 164-168 and Marquardt, D., “An Algorithm for Least Squares Estimation on Nonlinear Parameters”, SIAM J. Appl. Math 11, (1963) pp 431-441.

glucosylceramide synthase (GCS), sequence (Q16739 whole entry): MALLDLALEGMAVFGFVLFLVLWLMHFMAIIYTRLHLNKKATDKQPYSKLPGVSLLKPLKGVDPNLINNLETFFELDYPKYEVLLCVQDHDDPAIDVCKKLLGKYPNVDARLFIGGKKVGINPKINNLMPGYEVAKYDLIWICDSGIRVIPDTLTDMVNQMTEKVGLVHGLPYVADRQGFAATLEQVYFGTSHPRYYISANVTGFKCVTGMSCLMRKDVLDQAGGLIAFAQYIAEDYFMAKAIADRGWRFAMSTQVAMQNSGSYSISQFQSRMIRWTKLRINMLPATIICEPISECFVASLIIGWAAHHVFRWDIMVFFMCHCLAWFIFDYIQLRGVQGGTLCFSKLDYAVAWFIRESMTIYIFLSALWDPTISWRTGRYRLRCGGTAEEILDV

**Q.** For `N#Cc1cnc(C2CC2)nc1N1CCC2(CC1)Cc1cc(F)ccc1O2` [Compound 64, 2-cyclopropyl-4-(5-fluoro-3H-spiro[benzofuran-2,4′-piperidin]-1′-yl)pyrimidine-5-carbonitrile], which IC50 is on record?
**A.** 1350 nM

**Q.** Which IC50 does the source give for `N#Cc1cnc(C2CC2)nc1N1Cc2cccn3c(C(=O)NCC4CC4)cc(c23)C1` [Compound 65, 2-(5-cyano-2-cyclopropylpyrimidin-4-yl)-N-(cyclopropylmethyl)-2,3-dihydro-1H-pyrrrolo[3,2,1-ij][1,6]naphthyridine-5-carboxamide] here?
**A.** 119 nM

**Q.** How did the IC50 turn out when `N#Cc1cnc(C2CC2)nc1N1CCc2nc[nH]c2C1c1cccc(F)c1` (stereo not shown) [Compound 66, 2-cyclopropyl-4-(4-(3-fluorophenyl)-3,4,6,7-tetrahydro-5H-imidazo[4,5-c]pyridin-5-yl)pyrimidine-5-carbonitrile] was run?
**A.** 2040 nM

**Q.** Which IC50 does the source give for `CNC(=O)[C@]12CN(c3nc(C4CC4)ncc3C#N)C[C@H]1C(c1ccc(C)cc1)=NO2` [Compound 67, (3aS,6aR)-5-(5-cyano-2-cyclopropylpyrimidin-4-yl)-N-methyl-3-(p-tolyl)-3a,4,5,6-tetrahydro-6aH-pyrrolo[3,4-d]isoxazole-6a-carboxamide] here?
**A.** 207 nM

**Q.** `N#Cc1cnc(C2CC2)nc1N1CCOCC1c1ccccc1F` (stereo not shown) [Compound 68, 2-cyclopropyl-4-(3-(2-fluorophenyl)morpholino)pyrimidine-5-carbonitrile] was tested. Which IC50 did it give?
**A.** 546 nM

**Q.** `N#Cc1cnc(C2CC2)nc1N1CCc2c(sn(Cc3ccc(F)cc3)c2=O)C1` [Compound 69, 2-cyclopropyl-4-(2-(4-fluorobenzyl)-3-oxo-3,4,5,7-tetrahydroisothiazolo[5,4-c]pyridin-6(2H)-yl)pyrimidine-5-carbonitrile] was tested. Which IC50 did it give?
**A.** 2760 nM

**Q.** For `N#Cc1cnc(C2CC2)nc1N1CCN(Cc2nc(-c3ccc(Cl)cc3)no2)CC1` [Compound 70, 4-(4-((3-(4-chlorophenyl)-1,2,4-oxadiazol-5-yl)methyl)piperazin-1-yl)-2-cyclopropylpyrimidine-5-carbonitrile], which IC50 is on record?
**A.** 877 nM

**Q.** Which IC50 does the source give for `CC(C)N1C(=O)[C@]2(c3ccsc3)CN(c3nc(C4CC4)ncc3C#N)C[C@@H]2S1(=O)=O` [Compound 71, 2-cyclopropyl-4-((3aS,6aR)-2-isopropyl-1,1-dioxido-3-oxo-3a-(thiophen-3-yl)hexahydro-5H-pyrrolo[3,4-d]isothiazol-5-yl)pyrimidine-5-carbonitrile] here?
**A.** 832 nM

**Q.** Which IC50 does the source give for `N#Cc1cnc(C2CC2)nc1N1CC2CCCC1CN(Cc1ccccc1)C2` (stereo not shown) [Compound 72, 4-(3-benzyl-3,9-diazabicyclo[3.3.2]decan-9-yl)-2-cyclopropylpyrimidine-5-carbonitrile] here?
**A.** 1860 nM

**Q.** For `N#Cc1cnc(C2CC2)nc1N1CCC(O)(c2cccc(C(F)(F)F)c2)CC1` [Compound 73, 2-cyclopropyl-4-(4-hydroxy-4-(3-(trifluoromethyl)phenyl)piperidin-1-yl)pyrimidine-5-carbonitrile], which IC50 is on record?
**A.** 1110 nM

**Q.** Which IC50 does the source give for `N#Cc1cnc(C2CC2)nc1N(CC1CCCO1)CC1CC2C=CC1C2` (stereo not shown) [Compound 74, 4-((bicyclo[2.2.1]hept-5-en-2-ylmethyl)((tetrahydrofuran-2-yl)methyl)amino)-2-cyclopropylpyrimidine-5-carbonitrile] here?
**A.** 278 nM

**Q.** Which IC50 does the source give for `N#Cc1cnc(C2CC2)nc1N1CCC2(CC1)NC(=O)Nc1ccccc12` [Compound 75, 2-cyclopropyl-4-(2′-oxo-2′,3′-dihydro-1′H-spiro[piperidine-4,4′-quinazolin]-1-yl)pyrimidine-5-carbonitrile] here?
**A.** 1090 nM

**Q.** With `N#Cc1cnc(C2CC2)nc1N1CCCC(c2cc3cccnc3[nH]2)C1` (stereo not shown) [Compound 76, 4-(3-(1H-pyrrolo[2,3-b]pyridin-2-yl)piperidin-1-yl)-2-cyclopropylpyrimidine-5-carbonitrile] as the compound, how does the IC50 read?
**A.** 1480 nM

**Q.** How did the IC50 turn out when `CCNC(=O)[C@]12CN(c3nc(C4CC4)ncc3C#N)C[C@H]1C(Oc1ccccc1)=NO2` [Compound 77, (3aR)-5-(5-cyano-2-cyclopropylpyrimidin-4-yl)-N-ethyl-3-phenoxy-3a,4,5,6-tetrahydro-6aH-pyrrolo[3,4-b]isoxazole-6a-carboxamide] was run?
**A.** 655 nM

**Q.** How did the IC50 turn out when `N#Cc1cnc(C2CC2)nc1N1CCC(N2CCN(Cc3ccc(F)cc3)S2(=O)=O)CC1` [Compound 78, 2-cyclopropyl-4-(4-(5-(4-fluorobenzyl)-1,1-dioxido-1,2,5-thiadiazolidin-2-yl)piperidin-1-yl)pyrimidine-5-carbonitrile] was run?
**A.** 1800 nM

**Q.** How did the IC50 turn out when `N#Cc1cnc(C2CC2)nc1N1CCN(Cc2ccccc2)C[C@@H]1COCc1ccccc1` [Compound 79, (R)-4-(4-bnezyl-2-((benzyloxy)methyl)piperazin-1-yl)-2-cyclopropylpyrimidine-5-carbonitrile] was run?
**A.** 3260 nM

**Q.** For `COC(=O)C[C@@H]1COc2cc(OC3CN(c4nc(C5CC5)ncc4C#N)C3)ccc21` [Compound 80, methyl (S)-2-(6-((1-(5-cyano-2-cyclopropylpyrimidin-4-yl)azetidin-3-yl)oxy)-2,3-dihydrobenzofuran-3-yl)acetate], which IC50 is on record?
**A.** 303 nM

**Q.** `COC[C@@H](c1ccc(C(F)(F)F)cc1)N1CCN(c2nc(C3CC3)ncc2C#N)C[C@@H]1C` [Compound 81, 2-cyclopropyl-4-((S)-4-((R)-2-methoxy-1-(4-(trifluoromethyl)phenyl)ethyl)-3-methylpiperazin-1-yl)pyrimidine-5-carbonitrile] was tested. Which IC50 did it give?
**A.** 584 nM

**Q.** For `N#Cc1cnc(C2CC2)nc1NC1CCN(Cc2ccccc2)C1c1ccccc1` (stereo not shown) [Compound 82, 4-((1-benzyl-2-phenylpyrrolidin-3-yl)amino)-2-cyclopropylpyrimidine-5-carbonitrile], which IC50 is on record?
**A.** 770 nM

**Q.** With `N#Cc1cnc(C2CC2)nc1N1CCC(N(C2CC2)S(=O)(=O)c2ccccc2)CC1` [Compound 83, N-(1-(5-cyano-2-cyclopropylpyrimidin-4-yl)piperidin-4-yl)-N-cyclopropylbenzenesulfonamide] as the compound, how does the IC50 read?
**A.** 1590 nM

**Q.** Which IC50 does the source give for `N#Cc1cnc(C2CC2)nc1NC(c1ccccc1)C1(N2CCCCC2)CCC1` (stereo not shown) [Compound 84, 2-cyclopropyl-4-((phenyl(1-(piperidin-1-yl)cyclobutyl)methyl)amino)pyrimidine-5-carbonitrile] here?
**A.** 1240 nM

**Q.** With `CNC(=O)C12CN(c3nc(C4CC4)ncc3C#N)CC1C(c1ccc(C)cc1)=NO2` (stereo not shown) [Compound 85, 5-(5-cyano-2-cyclopropylpyrimidin-4-yl)-N-methyl-3-(p-tolyl)-3a,4,5,6-tetrahydro-6aH-pyrrolo[3,4-d]isoxazole-6a-carboxamide] as the compound, how does the IC50 read?
**A.** 168 nM

**Q.** Which IC50 does the source give for `N#Cc1cnc(C2CC2)nc1N1CC2OCCN(Cc3ccccc3)C2C1` (stereo not shown) [Compound 86, 4-(4-benzylhexahydropyrrolo[3,4-b][1,4]oxazin-6(2H)-yl)-2-cyclopropylpyrimidine-5-carbonitrile] here?
**A.** 937 nM

**Q.** For `N#Cc1ccccc1C1CCN(c2nc(C3CC3)ncc2C#N)C1` (stereo not shown) [Compound 87, 4-(3-(2-cyanophenyl)pyrrolidin-1-yl)-2-cyclopropylpyrimidine-5-carbonitrile], which IC50 is on record?
**A.** 218 nM

**Q.** Which IC50 does the source give for `Cc1ccc(-c2noc(CN3CCN(c4nc(C5CC5)ncc4C#N)CC3)n2)cc1` [Compound 88, 2-cyclopropyl-4-(4-((3-(p-tolyl)-1,2,4-oxadiazol-5-yl)methyl)piperazin-1-yl)pyrimidine-5-carbonitrile] here?
**A.** 446 nM

**Q.** `N#Cc1cnc(C2CC2)nc1N1C[C@@H]2C[C@H]1CN2Cc1ccc(Cl)cc1` [Compound 89, 4-((1S,4S)-5-(4-chlorobenzyl)-2,5-diazabicyclo[2.2.1]heptan-2-yl)-2-cyclopropylpyrimidine-5-carbonitrile] was tested. Which IC50 did it give?
**A.** 352 nM

**Q.** With `N#Cc1cnc(C2CC2)nc1N(CC1CCC1)CC1CCCO1` (stereo not shown) [Compound 90, 4-((cyclobutylmethyl)((tetrahydrofuran-2-yl)methyl)amino)-2-cyclopropylpyrimidine-5-carbonitrile] as the compound, how does the IC50 read?
**A.** 1620 nM

**Q.** For `N#Cc1cnc(C2CC2)nc1NC1CCc2ccc(O)cc21` (stereo not shown) [Compound 91, 2-cyclopropyl-4-((6-hydroxy-2,3-dihydro-1H-inden-1-yl)amino)pyrimidine-5-carbonitrile], which IC50 is on record?
**A.** 379 nM

**Q.** `N#Cc1cnc(C2CC2)nc1NC1CN(C(c2ccccc2)c2ccccc2)C1` [Compound 92, 4-((1-benzhydrylazetidin-3-yl)amino)-2-cyclopropylpyrimidine-5-carbonitrile] was tested. Which IC50 did it give?
**A.** 2900 nM

**Q.** `CC(C)c1nc(-c2cccnc2N2CCN(c3nc(C4CC4)ncc3C#N)CC2)no1` [Compound 93, 2-cyclopropyl-4-(4-(3-(5-isopropyl-1,2,4-oxadiazol-3-yl)pyridin-2-yl)piperazin-1-yl)pyrimidine-5-carbonitrile] was tested. Which IC50 did it give?
**A.** 48 nM

**Q.** With `N#Cc1cnc(C2CC2)nc1NC1CCCc2sc(C3CCCCC3)nc21` (stereo not shown) [Compound 94, 4-((2-cyclohexyl-4,5,6,7-tetrahydrobenzo[d]thiazol-4-yl)amino)-2-cyclopropylpyrimidine-5-carbonitrile] as the compound, how does the IC50 read?
**A.** 14 nM
